The nature of this data set: gradient 5% acetonitrile 3 min, to 50% in 2 min, to 85% in 15 min, held 3 min, 100 µL/min. To be noted: column: Zorbax Extend-C18 2.1 x 50 mm; eluents: water / acetonitrile, 0.1% formic acid. An outline of the steps: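 Each retention time is based on an adduct peak selected computationally and verified by manual inspection. Measurements used HPLC–quadrupole time-of-flight mass spectrometry in positive and negative ionization mode on mixtures of ~100 pure standards. Chromatography ran on a Zorbax Extend-C18 column (2.1 × 50 mm, 1.8 μm) at 100 μL/min with water and acetonitrile, each containing 0.1% formic acid, and dead and dwell volumes of 40 μL and 900 μL.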
As for `CCCNC(=O)C1CCCN(c2ccc(SCC(=O)NCCc3ccc(Cl)cc3)nn2)C1` (centres undefined), the RP-LC retention time worked out at 676 s.

`Cc1sc2ccn(Cc3ccc(F)cc3)c(=O)c2c1C(=O)NCCN1CCCC1` returned an RP-LC retention time of 662 s.

Compound `C=CCNC(=O)Cc1cn2cc(Br)ccc2n1` had an RP-LC retention time of 557 s.

For the compound `COCC1CN(S(=O)(=O)Cc2cccc(F)c2)CC12CCNCC2` (centres undefined), the RP-LC retention time came to 623 s.

As to `CCc1ccccc1NS(=O)(=O)c1ccc2c(c1)C(=O)N(CC)c1ncccc1O2`, the RP-LC retention time was 1050 s.

With `COc1ccc(-c2noc(-c3nnn4c3COC(c3ccc(Cl)cc3)C4)n2)cc1OC` (centres undefined), the RP-LC retention time was 1130 s.

With `O=S1(=O)CCN(c2ccccc2CC(c2c[nH]c3ccccc23)c2c[nH]c3ccccc23)CC1`, the RP-LC retention time stood at 964 s.

As for `Cc1ccc(-n2nc(N3CCCC(C(=O)NCCCc4ccccc4)C3)ccc2=O)cc1Cl` (centres undefined), the RP-LC retention time stood at 1010 s.

`Cc1cc(-c2nnc(-c3ccccc3)o2)c(C)n1CC(=O)NCc1cccs1` gave an RP-LC retention time of 900 s.

Compound `O=C(Nc1ccc(N2CCN(C3CCCC3)C2=O)nc1)c1ccc(Cl)cc1` had an RP-LC retention time of 937 s.

For the compound `OCCNCCN1CCN(CCCN2c3ccccc3Sc3ccc(C(F)(F)F)cc32)CC1`, the RP-LC retention time is 641 s.

The compound `CC(C)NC(=O)c1ccc(-c2nc3cc(NS(=O)(=O)c4ccc(F)cc4)ccc3n2C)cc1` displayed an RP-LC retention time of 684 s.

Turning to `COc1ccc(-c2nc3ncccn3c2Nc2ccc(F)cc2)cc1`, the RP-LC retention time amounted to 714 s.

`CCCn1c(=O)sc2cc(S(=O)(=O)N3CCC(C(=O)NC(C)(C)CC)CC3)ccc21` returned an RP-LC retention time of 979 s.

Turning to `O=C(NCCOc1ccccc1)c1ccccc1C(=O)c1ccccc1`, the RP-LC retention time is 918 s.

Consider `O=C(CCC1CCN(c2cc(NC3CC3)ncn2)CC1)NCc1cnccn1`, for which the RP-LC retention time was determined as 564 s.

Consider `O=C(Nc1cc(-c2ccsc2)no1)c1ccc(C(F)(F)F)cc1`, for which the RP-LC retention time was determined as 1060 s.

For the compound `CCN1C(=O)c2cc(C(=O)Nc3cccc(F)c3)nn2CC1(C)C(=O)NC1CCCC1` (centres undefined), the RP-LC retention time was found to be 834 s.

Turning to `CCOc1ccccc1C1NC(=O)N(CC(=O)N2CCN(c3ccc(F)cc3)CC2)C2=C1C(=O)OC2` (centres undefined), the RP-LC retention time was 830 s.

Consider `CCNC(=O)c1cc(C)no1`, for which the RP-LC retention time came to 596 s.

In the case of `COc1ccc(-n2nnc(-c3nc(-c4cc(OC)ccc4OC)cs3)c2N)cc1`, the RP-LC retention time was 1080 s.

Compound `Cc1nnc2cc(N3CCN(Cc4cn[nH]c4-c4cccs4)CC3)cnn12` came in with an RP-LC retention time of 543 s.

As for `Cc1ccc(N2C=NS(=O)(=O)c3cccnc32)cc1C`, the RP-LC retention time was found to be 840 s.

In turn, `COc1ccc(NC(=O)C2CCc3nc(N4CCCC4)ncc3C2)cc1OC` (centres undefined) had an RP-LC retention time of 719 s.

`COc1ccc(CNC(=O)c2cn3cc(Cl)ccc3n2)cc1OC` had an RP-LC retention time of 749 s.

Compound `O=S(=O)(c1ccccc1)N1CC(F)(F)C[C@H]1COc1cccnc1` came in with an RP-LC retention time of 690 s.

As to `COCC(=O)N(C1CCOCC1)C1CCN(S(=O)(=O)c2ccccc2)CC1`, the RP-LC retention time was 727 s.

Turning to `COCCNc1nc(-c2ccc(C(C)(C)C)cc2)nc2ccccc12`, the RP-LC retention time came out at 790 s.

In the case of `N[C@@H]1CCCCN(c2c(F)cc3c(=O)c(C(=O)O)cn(C4CC4)c3c2Cl)C1`, the RP-LC retention time was 707 s.

Compound `CCOc1cccc2cc(C(=O)Nc3ccc4c(c3)C(=O)N(C)C4=O)oc12` returned an RP-LC retention time of 906 s.

The compound `O=C(CSc1nnc2c3cc(-c4ccccc4)nn3ccn12)NCc1ccccc1` registered an RP-LC retention time of 781 s.

As to `CCc1nnc(-c2ccc3ccn(CC(=O)N4CCN(c5ccccc5)CC4)c3c2)o1`, the RP-LC retention time was 858 s.

As to `O=C(C1CCCN(c2nccnc2Oc2ccccc2)C1)N1CCN(c2ccccc2Cl)CC1` (centres undefined), the RP-LC retention time came to 1240 s.

`Cc1cccc(-c2nc3sc(N4CCCCC4)nn3c2NC(=O)C2CC2)c1` gave an RP-LC retention time of 891 s.

`COc1cc(C2=NN(C(C)=O)C(c3cccnc3)O2)cc(OC)c1OC(C)=O` (centres undefined) yielded an RP-LC retention time of 728 s.

With `CCCn1cc(CCNC(=O)Cc2cccc(Cl)c2)c2cccnc21`, the RP-LC retention time came to 799 s.

As for `CCOC(=O)C1CCN(C(=O)CCC2CCCN(c3cc(NC4CC4)ncn3)C2)CC1` (centres undefined), the RP-LC retention time came to 662 s.

`COc1ccc(-c2noc(Cc3nnc(-c4cccc(C)c4)o3)n2)cc1OC` had an RP-LC retention time of 945 s.

As to `O=C([C@@H]1C[C@H](F)CN1S(=O)(=O)Cc1ccc(Cl)cc1)N1CCc2ccccc2C1`, the RP-LC retention time turned out to be 1020 s.

In turn, `O=C(Nc1ccccc1Br)N1CCC(n2cnc3cccnc32)CC1` had an RP-LC retention time of 670 s.

Compound `CC(C)c1ccc(NC(=O)C2CCN(S(=O)(=O)c3ccc4[nH]c(=O)sc4c3)CC2)cc1` displayed an RP-LC retention time of 913 s.

`CCn1c(=O)c2cc(C(=O)NCc3ccccc3C(F)(F)F)nn2c2ccccc21` came in with an RP-LC retention time of 1000 s.

Compound `O=S(=O)(c1ccc(-c2noc(COc3ccc(Cl)cc3)n2)cc1)N1CCCC1` showed an RP-LC retention time of 1170 s.

Regarding `CCOC(=O)N1CCN(C(=O)CSc2ccc3nnc(-c4cccnc4)n3n2)CC1`, the RP-LC retention time was found to be 585 s.

In the case of `COc1ccc(-c2nnc(-c3cc(S(=O)(=O)N4CCCCC4)ccc3Cl)o2)cc1`, the RP-LC retention time came out at 1150 s.

Take `CCn1c(=O)c2ccccc2n(Cc2nc(-c3cccc(C)c3)no2)c1=O`: the RP-LC retention time amounted to 1070 s.

On to `COC(=O)C(C)NC(=O)NCc1cccn1Cc1cccc(C)c1` (centres undefined), for which the RP-LC retention time amounted to 827 s.

Take `COc1ccc(Br)c2c1-c1nc(NC(=O)c3cccc(C)c3)sc1C2`: the RP-LC retention time is 1140 s.

In turn, `C[C@H]1CNCCc2ccc(Cl)cc21` registered an RP-LC retention time of 652 s.

The compound `Cc1cccc(-c2noc(-c3nnn(Cc4nc(-c5cccc(Cl)c5)oc4C)c3C)n2)c1` showed an RP-LC retention time of 1000 s.

As for `O=C(O)c1cccc2c1C(=O)c1cccc3snc-2c13`, the RP-LC retention time was 804 s.

Turning to `COc1ccc(/C=C/c2nc(Cn3c(C)nc4ccccc4c3=O)no2)cc1`, the RP-LC retention time is 871 s.

`O=C(CCn1nnc2cc(-c3noc(Cc4ccc(Br)cc4)n3)ccc21)N1CCOCC1` showed an RP-LC retention time of 860 s.

Consider `O=C(NCc1ccco1)c1ccc2ccnc(N3CCN(c4ccc(F)cc4)CC3)c2c1`, for which the RP-LC retention time worked out at 782 s.

For the compound `O=C(CN1CC=C(c2cnn(-c3ccccc3)c2)CC1)NCc1ccco1`, the RP-LC retention time amounted to 646 s.

The compound `CCc1ccc(NC(=O)Cn2cnc3nc(N4CCC(C(=O)NC5CC5)CC4)sc3c2=O)cc1` registered an RP-LC retention time of 708 s.

As for `O=C(NCc1nc(-c2ccc(-c3csc(C4CC4)n3)cc2)no1)c1ccccc1`, the RP-LC retention time was found to be 1030 s.

Compound `CCS(=O)(=O)N1CCN(Cc2ccc(OC)nc2)CC1` showed an RP-LC retention time of 921 s.

For the compound `COc1ccc(-c2cn3c(CC(=O)N4CCCCC4)csc3n2)cc1OC`, the RP-LC retention time worked out at 666 s.

Values taken from the METLIN SMRT retention time set (Domingo-Almenara et al. 2019).
